For 2 compounds, mutagenic call results are on record in PubChem BioAssay AID1259407 (Chemical Carcinogenesis Research Information System (CCRIS), 2018).

Activity calls are given as the source filed them. The rule behind the calls is not given here.

For this data set, the system named is CCRIS mutagenicity, Ames/micronucleus/aberration tests. Nature of the data set: CCRIS mutagenicity studies.

As to `CNc1ccccc1`, the mutagenic call is, setting by setting: (Test System: AMES SALMONELLA TYPHIMURIUM, Strain/Indicator: TA97, Metabolic Activation: HAMSTER, LIVER, S-9, AROCLOR 1254 (10%), Method: PREINCUBATION) “inactive; negative”; (Test System: AMES SALMONELLA TYPHIMURIUM, Strain/Indicator: TA97, Metabolic Activation: HAMSTER, LIVER, S-9, AROCLOR 1254 (30%), Method: PREINCUBATION) “inactive; negative”; (Test System: AMES SALMONELLA TYPHIMURIUM, Strain/Indicator: TA97, Metabolic Activation: NONE, Method: PREINCUBATION) “inactive; negative”; (Test System: AMES SALMONELLA TYPHIMURIUM, Strain/Indicator: TA97, Metabolic Activation: RAT, LIVER, S-9, AROCLOR 1254 (10%), Method: PREINCUBATION) “inactive; negative”; (Test System: AMES SALMONELLA TYPHIMURIUM, Strain/Indicator: TA97, Metabolic Activation: RAT, LIVER, S-9, AROCLOR 1254 (30%), Method: PREINCUBATION) “inactive; negative”; (Test System: AMES SALMONELLA TYPHIMURIUM, Strain/Indicator: TA98, Metabolic Activation: HAMSTER, LIVER, S-9, AROCLOR 1254 (10%), Method: PREINCUBATION) “inactive; negative”. Moreover, the mutagenic call is, setting by setting: (Test System: AMES SALMONELLA TYPHIMURIUM, Strain/Indicator: TA98, Metabolic Activation: HAMSTER, LIVER, S-9, AROCLOR 1254 (30%), Method: PREINCUBATION) “inactive; negative”; (Test System: AMES SALMONELLA TYPHIMURIUM, Strain/Indicator: TA98, Metabolic Activation: HAMSTER, LIVER, S-9, SODIUM PHENOBARBITAL AND 5,6-BENZOFLAVONE, Method: PREINCUBATION) “inactive; negative”; (Test System: AMES SALMONELLA TYPHIMURIUM, Strain/Indicator: TA98, Metabolic Activation: NONE, Method: PREINCUBATION) “inactive; negative”; (Test System: AMES SALMONELLA TYPHIMURIUM, Strain/Indicator: TA98, Metabolic Activation: RAT, LIVER, S-9, AROCLOR 1254 (10 OR 30%), Method: PREINCUBATION) “inactive; negative”; (Test System: AMES SALMONELLA TYPHIMURIUM, Strain/Indicator: TA100, Metabolic Activation: HAMSTER, LIVER, S-9, AROCLOR 1254 (10%), Method: PREINCUBATION) “inactive; negative”; (Test System: AMES SALMONELLA TYPHIMURIUM, Strain/Indicator: TA100, Metabolic Activation: HAMSTER, LIVER, S-9, AROCLOR 1254 (30%), Method: PREINCUBATION) “inactive; negative”. For the same compound, the mutagenic call (Test System: AMES SALMONELLA TYPHIMURIUM, Strain/Indicator: TA100, Metabolic Activation: HAMSTER, LIVER, S-9, SODIUM PHENOBARBITAL AND 5,6-BENZOFLAVONE, Method: PREINCUBATION) is “inactive; negative”; the mutagenic call (Test System: AMES SALMONELLA TYPHIMURIUM, Strain/Indicator: TA100, Metabolic Activation: NONE, Method: PREINCUBATION) is “inactive; negative”; the mutagenic call (Test System: AMES SALMONELLA TYPHIMURIUM, Strain/Indicator: TA100, Metabolic Activation: RAT, LIVER, S-9, AROCLOR 1254 (10 OR 30%), Method: PREINCUBATION) is “inactive; negative”; the mutagenic call (Test System: AMES SALMONELLA TYPHIMURIUM, Strain/Indicator: TA102, Metabolic Activation: HAMSTER, LIVER, S-9, SODIUM PHENOBARBITAL AND 5,6-BENZOFLAVONE, Method: PREINCUBATION) was “inactive; negative”; the mutagenic call (Test System: AMES SALMONELLA TYPHIMURIUM, Strain/Indicator: TA102, Metabolic Activation: NONE, Method: PREINCUBATION) was “inactive; negative”; the mutagenic call (Test System: AMES SALMONELLA TYPHIMURIUM, Strain/Indicator: TA104, Metabolic Activation: HAMSTER, LIVER, S-9, SODIUM PHENOBARBITAL AND 5,6-BENZOFLAVONE, Method: PREINCUBATION) was “inactive; negative”. The mutagenic call was “inactive; negative” (Test System: AMES SALMONELLA TYPHIMURIUM, Strain/Indicator: TA104, Metabolic Activation: NONE, Method: PREINCUBATION); “inactive; negative” (Test System: AMES SALMONELLA TYPHIMURIUM, Strain/Indicator: TA1535, Metabolic Activation: HAMSTER, LIVER, S-9, AROCLOR 1254 (10%), Method: PREINCUBATION); “inactive; negative” (Test System: AMES SALMONELLA TYPHIMURIUM, Strain/Indicator: TA1535, Metabolic Activation: HAMSTER, LIVER, S-9, AROCLOR 1254 (30%), Method: PREINCUBATION); “inactive; negative” (Test System: AMES SALMONELLA TYPHIMURIUM, Strain/Indicator: TA1535, Metabolic Activation: HAMSTER, LIVER, S-9, SODIUM PHENOBARBITAL AND 5,6-BENZOFLAVONE, Method: PREINCUBATION); “inactive; negative” (Test System: AMES SALMONELLA TYPHIMURIUM, Strain/Indicator: TA1535, Metabolic Activation: NONE, Method: PREINCUBATION); “inactive; negative” (Test System: AMES SALMONELLA TYPHIMURIUM, Strain/Indicator: TA1535, Metabolic Activation: RAT, LIVER, S-9, AROCLOR 1254 (10 OR 30%), Method: PREINCUBATION). Moreover, the mutagenic call is “inactive; negative” (Test System: AMES SALMONELLA TYPHIMURIUM, Strain/Indicator: TA1537, Metabolic Activation: HAMSTER, LIVER, S-9, SODIUM PHENOBARBITAL AND 5,6-BENZOFLAVONE, Method: PREINCUBATION); “inactive; negative” (Test System: AMES SALMONELLA TYPHIMURIUM, Strain/Indicator: TA1537, Metabolic Activation: NONE, Method: PREINCUBATION); “inactive; negative” (Test System: E. COLI, Strain/Indicator: WP2UVRA/PKM101, Metabolic Activation: HAMSTER, LIVER, S-9, SODIUM PHENOBARBITAL AND 5,6-BENZOFLAVONE, Method: PREINCUBATION); “inactive; negative” (Test System: E. COLI, Strain/Indicator: WP2UVRA/PKM101, Metabolic Activation: NONE, Method: PREINCUBATION); “inactive; negative” (Test System: E. COLI, Strain/Indicator: WP2UVRA, Metabolic Activation: HAMSTER, LIVER, S-9, SODIUM PHENOBARBITAL AND 5,6-BENZOFLAVONE, Method: PREINCUBATION); “inactive; negative” (Test System: E. COLI, Strain/Indicator: WP2UVRA, Metabolic Activation: NONE, Method: PREINCUBATION). In addition, for the setting “Test System: UDS RODENT HEPATOCYTES, Strain/Indicator: THY INCORP (NON-S-PHASE), Metabolic Activation: NONE, Method: AUTORADIOGRAPHY”, the mutagenic call is “inactive; negative”.

As to `CCCN(CC(C)=O)N=O`, the mutagenic call (Test System: CHINESE HAMSTER V-79, Strain/Indicator: V-79/OUABAIN, Metabolic Activation: HAMSTER, HEPATOCYTES, Method: CELL-MEDIATED) was “active; positive”.
